# Experiments:
# Assay in all cases: GRmax, 72 h; higher = less effect;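 also: breast cell lines in 384-well plates, nine doses across a 10^4 range, Dye Drop imaging of viable cells vs DMSO and time-zero plates, GR 0 means no net growth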
# [1] = tested on: HCC1806
# [2] = tested on: SUM44PE
# [3] = tested on: EFM19
# [4] = tested on: SUM185PE
# [5] = tested on: HCC70
# [6] = tested on: MDAMB453
# [7] = tested on: HS578T
# [8] = tested on: ZR751
# [9] = tested on: CAL851
# [10] = tested on: UACC893
# [11] = tested on: BT20
# [12] = tested on: HCC38
Compound,"GRmax, 72 h [1]","GRmax, 72 h [2]","GRmax, 72 h [3]","GRmax, 72 h [4]","GRmax, 72 h [5]","GRmax, 72 h [6]","GRmax, 72 h [7]","GRmax, 72 h [8]","GRmax, 72 h [9]","GRmax, 72 h [10]","GRmax, 72 h [11]","GRmax, 72 h [12]","GRmax, 72 h ([1]; main component drawn)","GRmax, 72 h ([5]; main component drawn)","GRmax, 72 h ([6]; main component drawn)","GRmax, 72 h ([7]; main component drawn)","GRmax, 72 h ([9]; main component drawn)","GRmax, 72 h ([11]; main component drawn)","GRmax, 72 h ([12]; main component drawn)"
NC(=O)Nc1cc(-c2cccc(F)c2)sc1C(=O)N[C@H]1CCCNC1 [AZD7762] (max 10 µM),-0.482 GR,-0.704 GR,-0.149 GR,0.115 GR,-0.7 GR,-0.216 GR,-0.598 GR,-0.0705 GR,-0.322 GR,-0.308 GR,-0.578 GR,-0.334 GR,–,–,–,–,–,–,–
Cc1nc(NC(=O)N2CCC[C@H]2C(N)=O)sc1-c1ccnc(C(C)(C)C(F)(F)F)c1 [Alpelisib/BYL719] (max 10 µM),0.726 GR,-0.341 GR,-0.151 GR,0.15 GR,0.0981 GR,-0.307 GR,0.531 GR,0.577 GR,0.293 GR,-0.757 GR,-0.118 GR,0.68 GR,–,–,–,–,–,–,–
CN(C)C/C=C/C(=O)Nc1ccc(O[C@@H]2CCC[C@@H](Nc3ncc(Cl)c(-c4c[nH]c5ccccc45)n3)C2)cc1 [BSJ-01-175] (max 10 µM),-0.592 GR,-0.873 GR,-0.322 GR,-0.47 GR,-0.884 GR,-0.723 GR,-0.694 GR,-0.346 GR,-0.535 GR,-0.904 GR,-0.669 GR,-0.564 GR,–,–,–,–,–,–,–
CC(=O)c1c(C)c2cnc(Nc3ccc(N4CCN(CCOCCOCCOCCNC(=O)COc5cccc6c5C(=O)N(C5CCC(=O)NC5=O)C6=O)CC4)cn3)nc2n(C2CCCC2)c1=O (stereo unspecified) [BSJ-03-123] (max 10 µM),-0.0588 GR,0.289 GR,0.156 GR,0.665 GR,-0.513 GR,-0.022 GR,-0.263 GR,0.245 GR,-0.208 GR,0.289 GR,-0.005 GR,-0.0999 GR,–,–,–,–,–,–,–
CC(C)Nc1cc(-c2c[nH]c(C(=O)N[C@H](CO)c3cccc(Cl)c3)c2)c(Cl)cn1 [BVD523] (max 10 µM),0.76 GR,-0.0062 GR,0.798 GR,0.734 GR,0.461 GR,0.387 GR,0.259 GR,0.554 GR,0.274 GR,0.274 GR,0.463 GR,0.371 GR,–,–,–,–,–,–,–
Cc1c(N)nc([C@H](CC(N)=O)NC[C@H](N)C(N)=O)nc1C(=O)N[C@H](C(=O)N[C@H](C)[C@@H](O)[C@H](C)C(=O)N[C@H](C(=O)NCCc1nc(-c2nc(C(=O)NCCC[S+](C)C)cs2)cs1)[C@@H](C)O)[C@@H](OC1OC(CO)C(O)C(O)C1OC1OC(CO)C(O)C(OC(N)=O)C1O)c1cnc[nH]1 (stereo partly specified) [Bleomycin] (max 10 µM),–,–,–,–,–,–,–,–,–,–,–,–,0.481 GR,-0.115 GR,0.0154 GR,-0.197 GR,-0.107 GR,-0.129 GR,-0.232 GR
Nc1cc(C(F)(F)F)c(-c2cc(N3CCOCC3)nc(N3CCOCC3)n2)cn1 [Buparlisib/NVP-BKM120] (max 10 µM),-0.269 GR,-0.611 GR,-0.356 GR,0.0382 GR,-0.727 GR,-0.607 GR,-0.343 GR,-0.226 GR,-0.32 GR,-0.833 GR,-0.551 GR,-0.276 GR,–,–,–,–,–,–,–
COc1cc2nccc(Oc3ccc(NC(=O)C4(C(=O)Nc5ccc(F)cc5)CC4)cc3)c2cc1OC [Cabozantinib] (max 10 µM),0.691 GR,0.288 GR,0.668 GR,0.0169 GR,-0.0911 GR,0.465 GR,0.215 GR,1.06 GR,0.173 GR,0.735 GR,-0.203 GR,0.301 GR,–,–,–,–,–,–,–
